Source: patent US20260356830A1, “COMPOUNDS FOR MODULATING RET PROTEIN” (Bristol-Myers Squibb Company, priority 2022, published 2026)

Molecular target: T1, CCDC6-RET (Homo sapiens, UniProt P07949+Q16204+Q96SW2)
T1 construct: CCDC6 (natural N-terminal fusion partner, UniProt Q16204); endogenous in cells; host or cells: TPC-1 (parental, papillary thyroid carcinoma)
Experiment: Cellular RET degradation, AlphaLISA, TPC-1 cell line
Assay type: cell-based
Conditions: for Dmax: TPC1, human, 24 h, read-out: Cell Density TPC-1/CCDC6-RET Ymax %; for DC50: read-out: Cell Density TPC-1/CCDC6-RET DC50, half-maximal degradation concentration, TPC-1 (CCDC6-RET), 24 hrs
Procedure: Cellular RET degradation compound potency was determined using the bead-based luminescent amplification assay-AlphaLISA Surefire Ultra Detection Kit (Perkin-Elmer). The CCDC6-RET fusion expressing papillary thyroid carcinoma (TPC-1) cell line was selected for screening of potential degraders: Parental (TPC-1/CCDC6-RET). Cells were plated in 384 well culture plates (Greiner Bio-One) at 10,000 cells/well in 50 ul/well DMEM (Fisher Scientific) with 2% FBS serum (Gibco). […] Low normalization wells were media only and high normalization wells were cells treated with DMSO only. Treated cell plates were placed in an incubator at 37 °C and 5% CO2 for 24 hrs. At 24 hrs, cell media was removed by a FELIX automated liquid hander (Analytik Jena) and 25 ul of cell lysis buffer (provided in AlphaLisa kit) was added to each well. […] cell lysate were transferred into a 384-well microplate (Perkin Elmer) before addition of 2.5 ul AlphaLISA Acceptor Bead mix. The plates were sealed and kept at room temperature for 1 hr before addition of donor bead mixture. Donor bead addition was performed in the dark and incubated for >1 hr before AlphaLISA luminescence was measured on an Envision plate reader with an Alphascreen aperture at RT (excitation 680 nm, emission 615 nm). RET protein abundance (and therefore degradation) directly corresponds to luminescence intensity.
Intensities were normalized relative to the average values from 16 wells containing media alone (blank-low) and 16 wells containing cells +DMSO (high). % Degradation for each well was determined using the standard equation, where
DC50 (IC50) values for each compound tested are calculated by analyzing plots of % degradation versus compound concentration, and fitting to the standard 4-parameter logistic curve where,
DC50 values are calculated according to the relationship,
Compound replicates were performed in independent assays. Maximum degradation (YMax) was defined as the maximal % degradation value from the 4-parameter logistic equation, as previously described.

T1 sequence (Q16204+P07949 fused): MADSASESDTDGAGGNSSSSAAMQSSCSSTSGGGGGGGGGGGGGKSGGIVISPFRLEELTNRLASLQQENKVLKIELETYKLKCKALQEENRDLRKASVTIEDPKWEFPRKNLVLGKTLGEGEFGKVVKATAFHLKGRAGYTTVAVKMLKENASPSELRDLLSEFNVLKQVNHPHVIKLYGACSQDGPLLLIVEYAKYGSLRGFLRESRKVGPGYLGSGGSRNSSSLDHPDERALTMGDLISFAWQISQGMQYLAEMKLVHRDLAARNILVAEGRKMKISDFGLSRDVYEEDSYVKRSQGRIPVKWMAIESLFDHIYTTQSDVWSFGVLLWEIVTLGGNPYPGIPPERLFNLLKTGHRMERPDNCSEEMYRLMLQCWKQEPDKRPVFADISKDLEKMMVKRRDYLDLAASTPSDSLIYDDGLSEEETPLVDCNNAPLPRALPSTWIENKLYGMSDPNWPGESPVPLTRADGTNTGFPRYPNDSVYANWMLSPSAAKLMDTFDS
T1 sequence (Q96SW2 whole entry, the tested form may be a part): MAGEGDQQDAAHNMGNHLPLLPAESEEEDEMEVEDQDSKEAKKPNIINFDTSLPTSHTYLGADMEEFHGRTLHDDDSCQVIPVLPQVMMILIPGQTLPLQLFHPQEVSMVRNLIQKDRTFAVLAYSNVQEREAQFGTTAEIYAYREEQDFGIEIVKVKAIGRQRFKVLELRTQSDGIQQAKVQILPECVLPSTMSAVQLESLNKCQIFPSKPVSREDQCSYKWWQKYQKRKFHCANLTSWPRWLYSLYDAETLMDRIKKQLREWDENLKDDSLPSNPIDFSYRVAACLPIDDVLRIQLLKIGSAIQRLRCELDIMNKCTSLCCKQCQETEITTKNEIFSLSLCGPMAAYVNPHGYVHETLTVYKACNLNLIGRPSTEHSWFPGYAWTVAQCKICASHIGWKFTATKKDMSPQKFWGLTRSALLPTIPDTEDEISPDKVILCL
T1 sequence (Q16531 whole entry partner, the tested form may be a part): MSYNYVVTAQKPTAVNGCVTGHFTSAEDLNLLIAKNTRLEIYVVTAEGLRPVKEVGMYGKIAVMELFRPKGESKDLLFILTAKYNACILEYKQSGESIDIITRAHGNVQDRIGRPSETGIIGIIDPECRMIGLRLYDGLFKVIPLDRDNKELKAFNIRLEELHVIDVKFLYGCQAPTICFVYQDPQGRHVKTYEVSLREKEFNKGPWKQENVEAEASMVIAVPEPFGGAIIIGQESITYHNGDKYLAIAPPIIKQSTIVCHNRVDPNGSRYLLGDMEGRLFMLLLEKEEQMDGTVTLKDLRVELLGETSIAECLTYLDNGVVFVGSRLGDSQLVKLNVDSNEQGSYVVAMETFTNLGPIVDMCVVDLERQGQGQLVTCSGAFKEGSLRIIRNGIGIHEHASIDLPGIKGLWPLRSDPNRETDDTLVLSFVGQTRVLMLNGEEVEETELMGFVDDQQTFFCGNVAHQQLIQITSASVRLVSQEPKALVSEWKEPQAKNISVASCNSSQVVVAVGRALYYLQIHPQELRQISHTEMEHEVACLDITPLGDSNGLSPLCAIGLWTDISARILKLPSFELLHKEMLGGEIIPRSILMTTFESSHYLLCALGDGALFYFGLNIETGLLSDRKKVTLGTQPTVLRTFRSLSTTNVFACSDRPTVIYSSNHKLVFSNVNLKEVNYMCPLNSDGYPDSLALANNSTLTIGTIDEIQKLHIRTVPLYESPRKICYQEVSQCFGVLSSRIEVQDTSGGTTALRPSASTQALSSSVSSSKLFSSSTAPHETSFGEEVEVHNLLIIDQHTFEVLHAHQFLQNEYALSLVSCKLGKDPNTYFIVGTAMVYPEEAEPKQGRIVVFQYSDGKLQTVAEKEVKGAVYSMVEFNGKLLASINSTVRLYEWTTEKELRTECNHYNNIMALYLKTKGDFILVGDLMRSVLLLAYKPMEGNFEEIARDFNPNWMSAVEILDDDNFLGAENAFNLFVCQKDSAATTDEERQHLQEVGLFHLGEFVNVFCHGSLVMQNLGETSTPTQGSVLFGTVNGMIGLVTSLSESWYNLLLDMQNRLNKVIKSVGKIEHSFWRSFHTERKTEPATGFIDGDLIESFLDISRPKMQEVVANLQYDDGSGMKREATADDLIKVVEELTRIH

Row | Dmax | DC50 | SMILES
1 | > 90% | 10 to 100 nM | CCOc1cc(-c2ccc(N3CCC(CN4CCN(CCC(=O)N5CCC6(CC5)CCN(c5ccc7c(c5)CN(C5CCC(=O)NC5=O)C7=O)CC6)CC4)(NC(=O)c4cc(F)ccc4F)CC3)nc2)c2c(C#N)cnn2c1 (stereo not shown) [Example 90, N-[1-(5-{3-cyano-6-ethoxypyrazolo[1,5-a]pyridin-4-yl}pyridin-2-yl)-4-{[4-(3-{9-[2-(2,6-dioxopiperidin-3-yl)-1-oxo-2,3-dihydro-1H-isoindol-5-yl]-3,9-diazaspiro[5.5]undecan-3-yl}-3-oxopropyl)piperazin-1-yl]methyl}piperidin-4-yl]-2,5-difluorobenzamide]
2 | 60 to 90% | 2 to 10 nM | CCOc1cc(-c2ccc(N3CCC(COCCN4CCN(C(=O)CCN5CCN(c6ccc7c(c6)C(=O)N(C6CCC(=O)NC6=O)C7)CC5)CC4)(NC(=O)c4cc(F)ccc4F)CC3)nc2)c2c(C#N)cnn2c1 (stereo not shown) [Example 33, N-[1-[5-(3-cyano-6-ethoxy-pyrazolo[1,5-a]pyridin-4-yl)-2-pyridyl]-4-[2-[4-[3-[4-[2-(2,6-dioxo-3-piperidyl)-3-oxo-isoindolin-5-yl]piperazin-1-yl]propanoyl]piperazin-1-yl]ethoxymethyl]-4-piperidyl]-2,5-difluoro-benzamide]
3 | 60 to 90% | 2 to 10 nM | CCOc1cc(-c2ccc(N3CCC(CN4CC5(C4)CN(C(=O)COc4ccc6c(c4)CN(C4CCC(=O)NC4=O)C6=O)C5)(NC(=O)c4cc(F)ccc4F)CC3)nc2)c2c(C#N)cnn2c1 (stereo not shown) [Example 97, N-[1-(5-{3-cyano-6-ethoxypyrazolo[1,5-a]pyridin-4-yl}pyridin-2-yl)-4-{[6-(2-{[2-(2,6-dioxopiperidin-3-yl)-1-oxo-2,3-dihydro-1H-isoindol-5-yl]oxy}acetyl)-2,6-diazaspiro[3.3]heptan-2-yl]methyl}piperidin-4-yl]-2,5-difluorobenzamide]
4 | > 90% | < 2 nM | CCOc1cc(-c2ccc(N3CCC(CN4CCC5(CCC(CC(=O)N6CCN(c7ccc8c(c7)CN(C7CCC(=O)NC7=O)C8=O)CC6)CC5)CC4)(NC(=O)c4cc(F)ccc4F)CC3)nc2)c2c(C#N)cnn2c1 (stereo not shown) [Example 124, N-[1-(5-{3-cyano-6-ethoxypyrazolo[1,5-a]pyridin-4-yl}pyridin-2-yl)-4-{[9-(2-{4-[2-(2,6-dioxopiperidin-3-yl)-1-oxo-2,3-dihydro-1H-isoindol-5-yl]piperazin-1-yl}-2-oxoethyl)-3-azaspiro[5.5]undecan-3-yl]methyl}piperidin-4-yl]-2,5-difluorobenzamide]
5 | > 90% | < 2 nM | CCOc1cc(-c2ccc(N3CCC(CN4CCN(C(=O)CCCCN5CCC(c6ccc7c(c6)C(=O)N(C6CCC(=O)NC6=O)C7)CC5)CC4)(NC(=O)c4cc(F)ccc4F)CC3)nc2)c2c(C#N)cnn2c1 (stereo not shown) [Example 18, N-[1-(5-{3-cyano-6-ethoxypyrazolo[1,5-a]pyridin-4-yl}pyridin-2-yl)-4-{[4-(5-{4-[2-(2,6-dioxopiperidin-3-yl)-3-oxo-2,3-dihydro-1H-isoindol-5-yl]piperidin-1-yl}pentanoyl)piperazin-1-yl]methyl}piperidin-4-yl]-2,5-difluorobenzamide]
6 | > 90% | < 2 nM | CCOc1cc(-c2ccc(N3CCC(CN4CCC(N5CC(N6CCC(c7ccc8c(c7)C(=O)N(C7CCC(=O)NC7=O)C8)CC6)C5)CC4)(NC(=O)c4cc(F)ccc4F)CC3)nc2)c2c(C#N)cnn2c1 (stereo not shown) [Example 71, N-(1-(5-(3-cyano-6-ethoxypyrazolo[1,5-a]pyridin-4-yl)pyridin-2-yl)-4-((4-(3-(4-(2-(2,6-dioxopiperidin-3-yl)-3-oxoisoindolin-5-yl)piperidin-1-yl)azetidin-1-yl)piperidin-1-yl)methyl)piperidin-4-yl)-2,5-difluorobenzamide]
7 | 60 to 90% | 2 to 10 nM | CCOc1cc(-c2ccc(N3CCC(CN(C)C(=O)CCCCN4CCC(c5ccc6c(c5)C(=O)N(C5CCC(=O)NC5=O)C6)CC4)(NC(=O)c4cc(F)ccc4F)CC3)nc2)c2c(C#N)cnn2c1 (stereo not shown) [Example 145, N-[1-(5-{3-cyano-6-ethoxypyrazolo[1,5-a]pyridin-4-yl}pyridin-2-yl)-4-[(5-{4-[2-(2,6-dioxopiperidin-3-yl)-3-oxo-2,3-dihydro-1H-isoindol-5-yl]piperidin-1-yl}-N-methylpentanamido)methyl]piperidin-4-yl]-2,5-difluorobenzamide]
8 | 60 to 90% | 10 to 100 nM | CCOc1cc(-c2ccc(N3CCC(COCCN4CCN(C(=O)CCN5CCC(c6ccc7c(c6)C(=O)N(C6CCC(=O)NC6=O)C7)CC5)CC4)(NC(=O)c4cc(F)ccc4F)CC3)nc2)c2c(C#N)cnn2c1 (stereo not shown) [Example 32, N-[1-[5-(3-cyano-6-ethoxy-pyrazolo[1,5-a]pyridin-4-yl)-2-pyridyl]-4-[2-[4-[3-[4-[2-(2,6-dioxo-3-piperidyl)-3-oxo-isoindolin-5-yl]-1-piperidyl]propanoyl]piperazin-1-yl]ethoxymethyl]-4-piperidyl]-2,5-difluoro-benzamide]
9 | 60 to 90% | < 2 nM | CCOc1cc(-c2ccc(N3CCC(CN4CCN(C(=O)C5CC6(C5)CC(C(=O)N5CCN(c7ccc8c(c7)CN(C7CCC(=O)NC7=O)C8=O)CC5)C6)CC4)(NC(=O)c4cc(F)ccc4F)CC3)nc2)c2c(C#N)cnn2c1 (stereo not shown) [Example 85, N-[1-(5-{3-cyano-6-ethoxypyrazolo[1,5-a]pyridin-4-yl}pyridin-2-yl)-4-{[4-(6-{4-[2-(2,6-dioxopiperidin-3-yl)-1-oxo-2,3-dihydro-1H-isoindol-5-yl]piperazine-1-carbonyl}spiro[3.3]heptane-2-carbonyl)piperazin-1-yl]methyl}piperidin-4-yl]-2,5-difluorobenzamide]
10 | > 90% | 2 to 10 nM | CCOc1cc(-c2ccc(N3CCC(Cc4ccccc4)(NC(=O)C4CCN(C(=O)CCN5CCC(c6ccc7c(c6)C(=O)N(C6CCC(=O)NC6=O)C7)CC5)CC4)CC3)nc2)c2c(C#N)cnn2c1 (stereo not shown) [Example 52, N-[4-benzyl-1-[5-(3-cyano-6-ethoxy-pyrazolo[1,5-a]pyridin-4-yl)-2-pyridyl]-4-piperidyl]-1-[3-[4-[2-(2,6-dioxo-3-piperidyl)-3-oxo-isoindolin-5-yl]-1-piperidyl]propanoyl]piperidine-4-carboxamide]
11 | > 90% | 2 to 10 nM | CCOc1cc(-c2ccc(N3CCC(CN4CCN(CCC(=O)N5CCC(c6ccc7c(c6)C(=O)N(C6CCC(=O)NC6=O)C7=O)CC5)CC4)(NC(=O)c4cc(F)ccc4F)CC3)nc2)c2c(C#N)cnn2c1 (stereo not shown) [Example 117, N-[1-(5-{3-cyano-6-ethoxypyrazolo[1,5-a]pyridin-4-yl}pyridin-2-yl)-4-{[4-(3-{4-[2-(2,6-dioxopiperidin-3-yl)-1,3-dioxo-2,3-dihydro-1H-isoindol-5-yl]piperidin-1-yl}-3-oxopropyl)piperazin-1-yl]methyl}piperidin-4-yl]-2,5-difluorobenzamide]
12 | > 90% | 2 to 10 nM | CCOc1cc(-c2ccc(N3CCC(CN4CCN(CC5CCN(C(=O)Cc6ccc7c(c6)CN(C6CCC(=O)NC6=O)C7=O)CC5)CC4)(NC(=O)c4cc(F)ccc4F)CC3)nc2)c2c(C#N)cnn2c1 (stereo not shown) [Example 112, N-[1-(5-{3-cyano-6-ethoxypyrazolo[1,5-a]pyridin-4-yl}pyridin-2-yl)-4-({4-[(1-{2-[2-(2,6-dioxopiperidin-3-yl)-1-oxo-2,3-dihydro-1H-isoindol-5-yl]acetyl}piperidin-4-yl)methyl]piperazin-1-yl}methyl)piperidin-4-yl]-2,5-difluorobenzamide]
13 | 60 to 90% | 10 to 100 nM | CCOc1cc(-c2ccc(N3CCC(CN4CCN(CCOCCOCCC(=O)N5CCN(c6ccc7c(c6)CN(C6CCC(=O)NC6=O)C7=O)CC5)CC4)(NC(=O)c4cc(F)ccc4F)CC3)nc2)c2c(C#N)cnn2c1 (stereo not shown) [Example 109, N-[1-(5-{3-cyano-6-ethoxypyrazolo[1,5-a]pyridin-4-yl}pyridin-2-yl)-4-[(4-{2-[2-(3-{4-[2-(2,6-dioxopiperidin-3-yl)-1-oxo-2,3-dihydro-1H-isoindol-5-yl]piperazin-1-yl}-3-oxopropoxy)ethoxy]ethyl}piperazin-1-yl)methyl]piperidin-4-yl]-2,5-difluorobenzamide]
14 | 60 to 90% | 10 to 100 nM | CCOc1cc(-c2ccc(N3CCC(C)(CN4CCN(C(=O)CCN5CCC(c6ccc7c(c6)C(=O)N(C6CCC(=O)NC6=O)C7)CC5)CC4)CC3)nc2)c2c(C#N)cnn2c1 (stereo not shown) [Example 147, 4-[6-(4-{[4-(3-{4-[2-(2,6-dioxopiperidin-3-yl)-3-oxo-2,3-dihydro-1H-isoindol-5-yl]piperidin-1-yl}propanoyl)piperazin-1-yl]methyl}-4-methylpiperidin-1-yl)pyridin-3-yl]-6-ethoxypyrazolo[1,5-a]pyridine-3-carbonitrile]
